PMC13222238, “Development of a gut microbiota model for the analysis of bacterial modifications of xenobiotics” (Applied Microbiology and Biotechnology, 2026)

Columns and labels:
bacterial colon model = test: in vitro; conditions: for apparent first-order rate constant (k): 500 µM
Method: (§1) Our model was based on the isolation of intact bacterial communities from human feces. Bacterial isolation was performed using a modified density gradient centrifugation protocol first described by Hevia et al. ([2015]). To detach bacteria adhering to particulate matter and embedded within fecal biofilms, 0.001% (w/v) cetyltrimethylammonium bromide (CTAB) was added to each diluted fecal sample 30 min prior to further processing (Macfarlane et al. [1997]). All steps involving open sample handling were conducted under strictly anaerobic conditions (79% N2, 19% CO2, 2% H2) within a vinyl anaerobic chamber (Coy Laboratory Products, Grass Lake, Michigan, USA). Samples from three donors were randomly pooled for each preparation to reduce variability among individuals. From each pooled and diluted fecal suspension, 15 mL were layered onto 3.5 mL of 55% (w/v) Nycodenz® (Serumwerk Bernburg AG, Bernburg, Germany) in anaerobic centrifuge tubes. The samples were then centrifuged at 4000 × g for 30 min at room temperature.
(§2) To further purify the extracellular enzyme (exoenzyme) fraction, the supernatant was centrifuged at 18,000 × g for 3 min at 4 °C. The resulting preparation was then sterile-filtered three times through 0.22-µm syringe filters to ensure complete removal of remaining microbial cells. The sterile exoenzyme fraction was stored anaerobically at −70 °C until further use. The middle layer, which contained the gut bacteria, was collected and referred to as the bacterial colon model. The isolated microbiota was then diluted in sterile 50% (v/v) glycerol and stored at −70 °C under anaerobic conditions. Prior to use in experiments, the cryopreserved cells were washed three times with modified SHIME® saline (18,000 × g, 3 min, 4 °C) to remove any remaining Nycodenz®, glycerol, and particulate material. The final cell suspension was adjusted to an optical density at 600 nm (OD600) of 10, corresponding to approximately 1.43 × 10^10 cells mL^−1, as determined microscopically using a Neubauer counting chamber (Hager et al. [2025]). This microbial density was about 16% of the mean in vivo bacterial concentration in the human colon, estimated at 8.8 × 10^10 cells mL^−1 (assuming a fecal density of 1.04 g mL^−1 (Sender et al. [2016])).
(§3) To enable parameter-based comparison of compound conversion across incubation matrices, apparent first-order kinetic parameters were calculated from precursor compound depletion data. Only quantifiable time points were considered. Because these values represent apparent kinetic estimates derived from a limited number of sampling points, they were interpreted primarily for comparative purposes. Detailed experimental conditions and analytical parameters are provided in Supplementary Tab. S2.
(§4) To evaluate the metabolic capabilities of the human colon model presented here, a panel of structurally diverse xenobiotics was selected based on microbial biotransformation reactions reported in the literature (Fig. 7, Supplementary Fig. S2). […] Together, these reference substrates served as model compounds covering major gut microbial transformation chemistries, enabling a matrix-to-matrix performance evaluation of the colon model. All compounds were incubated anaerobically for 24 h with pooled human fecal slurry, the bacterial colon model, and the sterile-filtered fecal exoenzyme fraction, derived from three independent donor pools (n = 3 each).

[1] = Xenobiotic depletion in buffer (SHIME saline with fiber-rich substrate, substrate control)
Method: as §3
(§5) Table S1: Composition of the modified SHIME®-based regeneration media.
(§6) To evaluate microbial xenobiotic metabolism under defined conditions, incubations were conducted using model substrates representing major biotransformation classes: 4- […]
(§7) reduction), and nitrendipine (nitro group reduction). Reaction mixtures were prepared under anaerobic conditions (37°C, 24 h) as follows: (i) 210 µL SHIME® saline containing the fiber-rich substrate formulation with 1 g L-1 mucin, pectin, and xylan (substrate control), (ii) 150 µL pooled fecal suspension (three individual pools with n = 3 donors each, 1:10 diluted in SHIME® saline) + 60 µL fiber-rich substrate, (iii) […] pooled exoenzyme fraction (three individual pools with n = 3 donors each, 1:10 in SHIME® saline), and (iv) 150 µL bacterial colon model + 60 µL fiber-rich substrate. All incubations contained 500 µM of the respective test compound.
(§8) At defined time points, samples were mixed 1:1 (v/v) with ethanol, vortexed, and centrifuged […]
(§9) (18,000 × g, 3 min). The resulting supernatant was combined 1:1 (v/v) with acetonitrile (100 %) […]
The clarified supernatant was diluted with the mobile phase prior to injection. Non-polar and UV-absorbing compounds were analyzed on a Knauer Eurospher II C8 column (250 × 4 mm, 5 µm) with a C8 guard cartridge using an AZURA CT 2 system (Knauer, Berlin, Germany) equipped with a SpectraSystem SCM1000 degasser, P4000 pump, AS3000 autosampler, and UVD 2.1L detector. Paracetamol was analyzed on a Shodex Asahipak NH2P-50 3E column (Showa Denko, Japan) with a corresponding guard column and an RI-101 detector (Ercatech AG, Germany). Chromatographic parameters, including mobile-phase composition, column temperature, flow rate, and detection wavelength are summarized in Suppl. Tab. […]. Quantification of parent compounds and metabolites was performed by external calibration using analytical reference standards.
(§10) Table S2: Chromatographic conditions for HPLC-based detection of selected xenobiotics and their microbial transformation products. Analytes were separated on either C8 or amino columns under compound-specific conditions. Mobile phases consisted of acetonitrile (ACN) with acidic modifiers and were operated under isocratic flow. Detection wavelengths correspond to the absorbance maxima […]
(§11) Column Mobile phase Tempera Flow rate UV detection […]
To confirm the identity of selected biotransformation products, representative samples were analyzed by liquid chromatography-mass spectrometry (LC-MS). Samples were mixed 1:1 (v/v) with ethanol and centrifuged (18,000 × g, 5 min). From the resulting supernatant, 50 µL were diluted in 450 µL H₂O: ACN (70:30, v/v). Prior to analysis, samples were filtered through

[2] = tested on: pooled human fecal slurry; test: Xenobiotic depletion in pooled human fecal slurry, anaerobic incubation
Method: as §3
(§12) To evaluate the metabolic capabilities of the human colon model presented here, a panel of structurally diverse xenobiotics was selected based on microbial biotransformation reactions reported in the literature (Fig. 7, Supplementary Fig. S2). […] Together, these reference substrates served as model compounds covering major gut microbial transformation chemistries, enabling a matrix-to-matrix performance evaluation of the colon model. […] Product levels were estimated using the nitrendipine calibration and are therefore semi-quantitative.
as §5, §6
(§13) reduction), and nitrendipine (nitro group reduction). Reaction mixtures were prepared under […]
as §7, with “rich” for “reduction), and nitrendipine (nitro group reduction). Reaction mixtures were prepared under anaerobic conditions (37°C, 24 h) as follows: (i) 210 µL SHIME® saline containing the fiber-rich”
as §8, §9
(§14) The clarified supernatant was diluted with the mobile phase prior to injection. Non-polar and UV-absorbing compounds were analyzed on a Knauer Eurospher II C8 column (250 × 4 mm, 5 µm) with a C8 guard cartridge using an AZURA CT 2 system (Knauer, Berlin, Germany) equipped with a SpectraSystem SCM1000 degasser, P4000 pump, AS3000 autosampler, and UVD 2.1L detector. Paracetamol was analyzed on a Shodex Asahipak NH2P-50 3E column (Showa Denko, Japan) with a corresponding guard column and an RI- […]
(§15) Chromatographic parameters, including mobile-phase composition, column temperature, flow rate, and detection wavelength are summarized in Suppl. Tab. S1. Quantification of parent compounds and metabolites was performed by external calibration using analytical reference standards.
as §10, §11

[3] = tested on: sterile-filtered fecal exoenzyme fraction; test: Xenobiotic depletion in the sterile-filtered fecal exoenzyme fraction; format: in vitro ADME, human; conditions: anaerobic, 24 h
Method: (§16) To further purify the extracellular enzyme (exoenzyme) fraction, the supernatant was centrifuged at 18,000 × g for 3 min at 4 °C. The resulting preparation was then sterile-filtered three times through 0.22-µm syringe filters to ensure complete removal of remaining microbial cells. The sterile exoenzyme fraction was stored anaerobically at −70 °C until further use. The middle layer, which contained the gut bacteria, was collected and referred to as the bacterial colon model. The isolated microbiota was then diluted in sterile 50% (v/v) glycerol and stored at −70 °C under anaerobic conditions.
as §3, §12, §5, §6, §13
as §7, with “rich” for “reduction), and nitrendipine (nitro group reduction). Reaction mixtures were prepared under anaerobic conditions (37°C, 24 h) as follows: (i) 210 µL SHIME® saline containing the fiber-rich”
as §8, §9, §14
(§17) Chromatographic parameters, including mobile-phase composition, column temperature, flow rate, and detection wavelength are summarized in Suppl. Tab. S1. Quantification of parent compounds and metabolites was performed by […]

[4] = Xenobiotic depletion in the bacterial colon model, anaerobic incubation; conditions: human
Method: as §1, §2, §3, §4

in vitro = conditions: human
Method: as §3, §12, §5, §6, §13
as §7, with “rich” for “reduction), and nitrendipine (nitro group reduction). Reaction mixtures were prepared under anaerobic conditions (37°C, 24 h) as follows: (i) 210 µL SHIME® saline containing the fiber-rich”
as §8, §9, §14, §15, §10, §11

[5] = Xenobiotic depletion in the sterile-filtered fecal exoenzyme fraction; format: in vitro ADME, human; conditions: human, sterile-filtered fecal exoenzyme fraction (cell-free), 500 µM test compound, anaerobic, 37°C, 24 h, three donor pools, read-out: half-life (t1/2) (converted)
Method: as §16, §3, §12, §5, §6, §13
as §7, with “rich” for “reduction), and nitrendipine (nitro group reduction). Reaction mixtures were prepared under anaerobic conditions (37°C, 24 h) as follows: (i) 210 µL SHIME® saline containing the fiber-rich”
as §8, §9, §14, §17

[6] = buffer, 500 µM test compound, anaerobic, 37°C, 24 h
[7] = fecal slurry, 500 µM test compound, anaerobic, 37°C, 24 h, three donor pools
[8] = 500 µM test compound, 37°C, three donor pools

Row | Structure (SMILES) | apparent first-order rate constant (k) [3, 8] | conversion in the exoenzyme fraction (in words) [3] | apparent first-order rate constant (k) (bacterial colon model; human) | half-life at 500 µM [4] | half-life at 500 µM ([1]; buffer) | apparent first-order rate constant (k) ([2]; human, 500 µM) | half-life at 500 µM (in vitro) | half-life at 500 µM [5] | apparent first-order rate constant (k) ([1]; 500 µM) | conversion in the bacterial colon model (in words) (bacterial colon model) | half-life (t1/2) (bacterial colon model; human) | apparent first-order rate constant (k) [1, 6] | half-life (t1/2) [1, 6] | conversion in fecal slurry (in words) ([2]; fecal slurry, anaerobic, 24 h) | apparent first-order rate constant (k) [2, 7] | half-life (t1/2) [2, 7] | half-life (t1/2) [3, 8] | conversion in the exoenzyme fraction (in words) ([3]; listed as 4-acetoxyacetanilide)
1 | CC(=O)Nc1ccc(OC(C)=O)cc1 [4-Acetoxyacetanilide, 4-acetoxyacetanilide] | 13.46 h⁻¹ | clear hydrolytic activity | – | – | – | – | – | – | – | rapidly degraded | 1.8 min | 0.02 h⁻¹ | > 24 h | rapidly degraded | 15.38 h⁻¹ | 3 min | 3 min | relevant activity
2 | O=C(N[C@H](CO)[C@H](O)c1ccc([N+](=O)[O-])cc1)C(Cl)Cl [Chloramphenicol, chloramphenicol] | 0.003 h⁻¹ | – | 0.47 h⁻¹ | 1.47 h | > 24 h | 0.45 h⁻¹ | 1.54 h | > 24 h | – | – | – | – | – | – | – | – | – | –
3 | O=C(O)c1cc(/N=N/c2ccc(S(=O)(=O)Nc3ccccn3)cc2)ccc1O [Sulfasalazine, sulfasalazine] | 0.003 h⁻¹ | – | 1.20 h⁻¹ | – | > 24 h | 0.93 h⁻¹ | – | > 24 h | 0.002 h⁻¹ | – | – | – | – | – | – | – | – | –

Second part, led by results:

Row | apparent first-order rate constant (k) [3, 8] | conversion in the exoenzyme fraction (in words) [3] | apparent first-order rate constant (k) (bacterial colon model; human) | half-life at 500 µM [4] | half-life at 500 µM ([1]; buffer) | apparent first-order rate constant (k) ([2]; human, 500 µM) | half-life at 500 µM (in vitro) | half-life at 500 µM [5] | apparent first-order rate constant (k) ([1]; 500 µM) | Structure (SMILES) | conversion in the bacterial colon model (in words) (bacterial colon model) | half-life (t1/2) (bacterial colon model; human) | apparent first-order rate constant (k) [1, 6] | half-life (t1/2) [1, 6] | conversion in fecal slurry (in words) ([2]; fecal slurry, anaerobic, 24 h) | apparent first-order rate constant (k) [2, 7] | half-life (t1/2) [2, 7] | half-life (t1/2) [3, 8] | conversion in the exoenzyme fraction (in words) ([3]; listed as 4-acetoxyacetanilide)
4 | 0.002 h⁻¹ | no relevant conversion | 0.92 h⁻¹ | 0.75 h | > 24 h | 0.44 h⁻¹ | 1.58 h | > 24 h | 0.0009 h⁻¹ | CCOC(=O)C1=C(C)NC(C)=C(C(=O)OC)C1c1cccc([N+](=O)[O-])c1 (centres unmarked) [Nitrendipine, nitrendipine] | – | – | – | – | – | – | – | – | –
5 | 0.16 h⁻¹ | – | 1.13 h⁻¹ | 0.61 h | > 24 h | 1.16 h⁻¹ | 0.6 h | 4.33 h | 0.005 h⁻¹ | CC(=O)OCC(=O)NCCCOc1cccc(CN2CCCCC2)c1 [Roxatidine-acetate, roxatidine-acetate] | – | – | – | – | – | – | – | – | –
6 | 0.003 h⁻¹ | no meaningful conversion | 0.20 h⁻¹ | 3.47 h | > 24 h | 0.12 h⁻¹ | 5.78 h | > 24 h | 0.0003 h⁻¹ | CC1=C(CC(=O)O)c2cc(F)ccc2/C1=C\c1ccc([S+](C)[O-])cc1 (centres unmarked) [Sulindac, sulindac] | – | – | – | – | – | – | – | – | –
